Where two headings read alike, the source gives them in different places. One block for each compound: values may come before it.
Assays:
Icmt = molecular target: T1, Icmt (Homo sapiens, UniProt O60725); assay: Measurement of ICMT activity: incorporation of 3H from [3H]AdoMet into biotin-S-farnesyl L-cysteine, Sf9 membranes containing ICMT; format: biochemical; details: mean of two separate determinations; ±SD where more than two; read-out: IC50 Icmt inhibition
T1 construct: host or cells: Sf9 membranes
T1 sequence (O60725 whole entry, species assumed): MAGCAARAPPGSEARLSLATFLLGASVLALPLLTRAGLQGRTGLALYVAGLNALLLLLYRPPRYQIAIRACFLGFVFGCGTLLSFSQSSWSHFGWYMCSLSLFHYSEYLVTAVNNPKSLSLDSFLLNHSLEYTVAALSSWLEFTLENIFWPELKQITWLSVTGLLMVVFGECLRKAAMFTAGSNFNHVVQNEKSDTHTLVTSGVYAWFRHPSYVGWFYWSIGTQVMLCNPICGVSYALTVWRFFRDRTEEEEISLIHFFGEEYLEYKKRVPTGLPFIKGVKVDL
Protocol: (§1) Measurement of ICMT activity. Icmt activity was determined by following incorporation of ^3H from [^3H]AdoMet (Amersham Biosciences) into the small molecule substrate biotin-S-farnesyl L-cysteine (BFC). Inhibitors were first incubated at 37° C. for 20 min, with the Sf9 membranes containing ICMT. An assay mixture containing 4 μM BFC and 5 μM [^3H]AdoMet in 100 mM Hepes, pH 7.4 and 5 mM MgCl2 was added to initiate the reaction. Reactions were carried out at 37° C. for 20 min, and terminated by addition of 10% Tween 20 and streptavidin beads (GE Healthcare, 10 uL of packed beads suspended in 500 μL of 20 mM NaH2PO4, pH 7.4, containing 150 mM NaCl). The mixtures were mixed by gentle agitation overnight at 4° C. The beads were harvested by centrifugation in a tabletop microcentrifuge at 10,000 rpm for 5 min and washed three times with 500 μL of 20 mM NaH2PO4, pH 7.4, containing 150 mM NaCl. The beads were then suspended in the same buffer, transferred to scintillation vials, and radioactivity determined.
as §1, with “Activity.” for “activity.”

[1] = tested on: MDA-MB-231 human breast cells; assay: Proliferation assay, CellTiter 96 AQueous One Solution (MTS); format: cell-based; details: for inhibition at 10 µM: read-out: inhibition in initial screen at a fixed concentration
Protocol: (§2) The MDA-MB-231 human breast cells were maintained at 37° C. with 5% CO2 in DMEM (Sigma) supplemented with 10% fetal bovine serum (FBS, Hyclone), 50 U/ml penicillin (Gibco), and 50 μg/ml streptomycin (Gibco). […] The relative number of the live cells was determined using the CellTiter® 96 AQueous One Solution Cell Proliferation Assay (Promega). Each condition was performed in triplicate, and data presented represent that obtained from at least two separate experiments.
as §2, with “to date were” for “represent that”, “one determination.” for “at least two separate experiments.”

[2] = Binding to fetal bovine serum (plasma protein binding), centrifugal filter device, HPLC; format: in vitro ADME; details: bovine, 5% w/v fetal bovine serum in phosphate buffered saline; for fraction unbound at 30 min, 1 µM / fraction unbound at 30 min, 4 µM / fraction unbound at 30 min, 10 µM / fraction unbound at 30 min, 25 µM: 5% fetal bovine serum in PBS; for fraction unbound at 30 min: all conc (1, 4, 10, 25 uM), read-out: % Bound Average, all conc (converted)
Protocol: (§3) Semi-automatic high-throughput determination of plasma protein binding using a 96-well plate filtrate assembly and fast liquid chromatography—tandem mass spectrometry. […] Stock solutions were prepared in DMSO at 100× higher concentrations. A 5% w/v solution of fetal bovine serum in phosphate buffered saline was prepared. An aliquot (10 μL of the stock solution was added to 990 μL of the PBS solution containing 5% fetal bovine serum in a glass tube which was then incubated in a shaking water bath at 37° C. for 30 min. 500 μL of the solution was then transferred to a centrifugal filter device (Amicon Ultra 0.5 ml # UFC503096) and centrifuged at 14 000g, 15 min. After this time, the filter units were removed and placed (upside down) in a collecting tube containing 477 μL, of PBS. The latter was centrifuged at 2000g, 2 min to obtain the retentate. […] J.

fetal bovine serum = assay: as above; format: in vitro ADME; details: fetal bovine serum
Protocol: as §3

[3] = Homo sapiens, MDA-MB-231 cells, 72 h, mean of two separate determinations, ±SD where more than two, read-out: IC50 Antiproliferative activity
[4] = Homo sapiens, MDA-MB-231, 72 h, read-out: IC50 Antiproliferative activity, MDA-MB-231 cells, 72 h, mean of two separate determinations, ±SD where more than two
[5] = read-out: % Bound Average (converted)
[6] = read-out: % Bound Run 1 (converted)
[7] = read-out: % Bound Run 2 (converted)
[8] = read-out: % Bound Run 3 (converted)
[9] = Homo sapiens, MDA-MB-231 cells, MTS colorimetric assay, 72 h, one determination, read-out: IC50
[10] = Homo sapiens, MDA-MB-231, 72 h, MDA-MB-231 cells, MTS colorimetric assay, 72 h, one determination

IC50 (Icmt): 7 µM
IC50 [1, 3]: 70 µM
Structure (SMILES): CCCCCCCCn1cc(CC(N)=O)c2cc(F)ccc21 [Compound 1-8, 2-(5-Fluoro-1-octyl-1H-indol-3-yl)acetamide]

Structure (SMILES): CCCCCCCCn1cc(C(N)=O)c2cc(-c3cccc(C)c3)ccc21 [Compound 5-1, 1-Octyl-5-m-tolyl-1H-indole-3-carboxamide]
IC50 (Icmt): 30 µM
IC50 [1, 4]: > 100 µM

IC50 (Icmt): 2.1 µM
IC50 [1, 3]: 4.7 µM
Structure (SMILES): CCCCCCCCn1cc(CC(=O)NC)c2cc(-c3cccc(C)c3)ccc21 [Compound 3-7, N-Methyl-2-(1-octyl-5-m-tolyl-1H-indol-3-yl)acetamide]

fraction unbound at 30 min, 1 µM [2, 5]: 0.0962
fraction unbound at 30 min, 1 µM [2, 6]: 0.107
fraction unbound at 30 min, 1 µM [2, 7]: 0.0611
fraction unbound at 30 min, 1 µM [2, 8]: 0.12
fraction unbound at 30 min, 4 µM [2, 5]: 0.104
fraction unbound at 30 min, 4 µM [2, 6]: 0.0557
fraction unbound at 30 min, 4 µM [2, 7]: 0.124
fraction unbound at 30 min, 4 µM [2, 8]: 0.131
fraction unbound at 30 min, 10 µM [2, 5]: 0.0945
fraction unbound at 30 min, 10 µM [2, 6]: 0.136
fraction unbound at 30 min, 10 µM [2, 7]: 0.0943
fraction unbound at 30 min, 10 µM [2, 8]: 0.0538
fraction unbound at 30 min, 25 µM [2, 5]: 0.122
fraction unbound at 30 min, 25 µM [2, 6]: 0.219
fraction unbound at 30 min, 25 µM [2, 7]: 0.0636
fraction unbound at 30 min, 25 µM [2, 8]: 0.0844
fraction unbound at 30 min [2]: 0.104
IC50 (Icmt): 1.5 µM
Structure (SMILES): CCCCCCCCn1cc(CC(N)=O)c2cc(-c3cccc(C)c3)ccc21 [cysmethynil, 2-(1-octyl-5-m-tolyl-1H-indol-3-yl) acetamide, reference compound]

IC50 (Icmt): > 100 µM
IC50 [1, 3]: > 100 µM
Structure (SMILES): CC(C)=CCn1ccc2cc(-c3cccc(C)c3)ccc21 [Compound 6-3, 1-(3-Methylbut-2-enyl)-5-m-tolyl-1H-indole]

Structure (SMILES): CCCCCCCCn1cc(CN2CCCC2)c2cc(F)ccc21 [6-9(5), 5-fluoro-1-octyl-3-(pyrrolidin-1-ylmethyl)-1H-indole]
IC50 [1, 9]: 2.2 µM

IC50 (Icmt): 69 µM
IC50 [1, 3]: > 100 µM
Structure (SMILES): CC(C)=CCn1cc(CC(N)=O)c2cc(F)ccc21 [Compound 6-8, 2-(5-Fluoro-1-(3-methylbut-2-enyl)-1H-indol-3-yl)acetamide]

Structure (SMILES): CCCCCCCCn1cc(CN2CCN(C)CC2)c2cc(F)ccc21 [6-9(6), 5-fluoro-3-((4-methylpiperazin-1-yl)methyl)-1-octyl-1H-indole]
inhibition at 10 µM ([1]; Homo sapiens, MDA-MB-231 cells): ~45%

Structure (SMILES): CCCCCCCCn1cc(CN(C)C)c2cc(F)ccc21 [6-9(1), 1-(5-fluoro-1-octyl-1H-indol-3-yl)-N,N-dimethylmethanamine]
IC50 [1, 10]: 4.9 µM

Structure (SMILES): CCCCCCCCn1cc(CN2CCOCC2)c2cc(F)ccc21 [6-9(4), 4-((5-fluoro-1-octyl-1H-indol-3-yl)methyl)morpholine]
IC50 [1, 9]: 3.2 µM

fraction unbound at 30 min, 1 µM [2, 5]: 0.182
fraction unbound at 30 min, 1 µM [2, 6]: 0.17
fraction unbound at 30 min, 1 µM [2, 7]: 0.224
fraction unbound at 30 min, 1 µM [2, 8]: 0.151
fraction unbound at 30 min, 4 µM [2, 5]: 0.272
fraction unbound at 30 min, 4 µM [2, 6]: 0.274
fraction unbound at 30 min, 4 µM [2, 7]: 0.301
fraction unbound at 30 min, 4 µM [2, 8]: 0.243
fraction unbound at 30 min, 10 µM [2, 5]: 0.299
fraction unbound at 30 min, 10 µM [2, 6]: 0.317
fraction unbound at 30 min, 10 µM [2, 7]: 0.353
fraction unbound at 30 min, 10 µM [2, 8]: 0.226
fraction unbound at 30 min, 25 µM [2, 5]: 0.304
fraction unbound at 30 min, 25 µM [2, 6]: 0.286
fraction unbound at 30 min, 25 µM [2, 7]: 0.352
fraction unbound at 30 min, 25 µM [2, 8]: 0.275
fraction unbound at 30 min [2]: 0.264
Structure (SMILES): CCCCCCCCn1cc(CN(CC)CC)c2cc(-c3cccc(C)c3)ccc21 [Compound J17G, N-ethyl-N-((1-octyl-5-m-tolyl-1H-indol-3-yl)methyl)ethanamine]
binding capacity compared with cysmethynil (fetal bovine serum): lower binding capacities than cysmethynil

Structure (SMILES): CCCCCCCCn1cc(CN2CCSCC2)c2cc(F)ccc21 [6-9(3), 4-((5-fluoro-1-octyl-1H-indol-3-yl)methyl)thiomorpholine]
inhibition at 10 µM ([1]; Homo sapiens, MDA-MB-231 cells): ~45%

IC50 (Icmt): 1.2 µM
IC50 [1, 3]: 20.7 µM
Structure (SMILES): CCCCCCCCn1cc(CCC(N)=O)c2cc(-c3cccc(C)c3)ccc21 [Compound 5-2, 3-(1-Octyl-5-m-tolyl-1H-indol-3-yl)propanamide]

Structure (SMILES): CCCCCCCCn1cc(CN(CC)CC)c2cc(F)ccc21 [Compound 6-9, N-ethyl-N-((5-fluoro-1-octyl-1H-indol-3-yl)methyl)ethanamine]
IC50 [1, 10]: 2.7 µM
IC50 ([1]; MDA-MB-231 cells, MTS colorimetric assay, 72 h, one determination): 2 µM

Structure (SMILES): CCCCCCCCn1cc(CC(=O)N2CCN(C)CC2)c2cc(-c3cccc(C)c3)ccc21 [Compound 3-6, 1-(4-Methylpiperazin-1-yl)-2-(1-octyl-5-m-tolyl-1H-indol-3-yl)ethanone]
IC50 (Icmt): 1.7 ± 0.4 µM
IC50 [1, 4]: 19.7 ± 0.9 µM

Structure (SMILES): CC(C)=CCn1cc(CN2CCOCC2)c2cc(-c3cccc(C)c3)ccc21 [Compound 6-6, 4-((1-(3-methylbut-2-enyl)-5-m-tolyl-1H-indol-3-yl)methyl)morpholine]
IC50 (Icmt): 2 ± 0.8 µM
IC50 [1, 4]: 34 ± 3 µM

Structure (SMILES): CCCCCCCCn1cc(CN2CCCCC2)c2cc(F)ccc21 [6-9(2), 5-fluoro-1-octyl-3-(piperidin-1-ylmethyl)-1H-indole]
IC50 [1, 10]: 2.3 µM

Reference: patent publication US8742100B2, “Small molecule inhibitors of isoprenylcysteine carboxyl methyltransferase with potential anticancer activity” (National University of Singapore, priority 2009, dated 2014)
